This note sets out measurements from patent US20170165317A1, “METHOD FOR MITIGATING OR ALLEVIATING SYNAPTIC AND COGNITIVE DEFICITS” (Trustees of Dartmouth College, priority 2013, published 2017).

What all share (format): in vivo, mouse
The subject of assay [1] is APP/PS1 mice. The assay can be described thus: Contextual fear conditioning after i.c.v. infusion. Particulars: VO-OHpic infusion. The protocol: (§1) APP/PS1 and wild-type mice were anesthetized with isofluorane, and i.c.v. delivery cannulas (brain alzet kit III) were implanted with a stereotaxic frame (KOPF Instruments) at the following coordinates according to the bregma: AP, −0.5 mm; ML, 1 mm; and DV, −2.2 mm. Osmotic minipumps (Alzet) were filled with artificial cerebrospinal fluid (aCSF) with or without PTEN inhibitor VO-OHpic (2.5 μM) and equilibrated in 0.9% NaCl at 37° C. for 48 hours. They were attached to the i.c.v. cannula tubing and subcutaneously implanted at the back. After 21 days, behavioral testing was started as described herein. […]
(§2) Fear conditioning. […] The animals' behavior was scored by an observer blind to the treatment condition. Using a time-sampling procedure every 2 seconds, each mouse was scored blindly as either freezing or active at the instant the sample was taken. […]
(§3) It was posited that if early Aβ-induced cognitive impairment results from a general synaptic bias toward LTD events (Selkoe (2002) Science 298:789-791), dampening this form of synaptic plasticity might prevent cognitive decay. Therefore, it was determined whether in vivo inhibition of PTEN, a lipid phosphatase that is involved in LTD (Jurado, et al. (2010) EMBO J. 29:2827-2840), would rescue cognitive deficits in APP/PS1 mice. […]

Assay [2] deals with APP/PS1 mice. The assay can be described thus: Novel object location task after i.c.v. infusion by osmotic minipump. The conditions noted are these: VO-OHpic infused 3-4 weeks into brain ventricles. The method, then: APP/PS1 and wild-type mice were anesthetized with isofluorane, and i.c.v. delivery cannulas (brain alzet kit III) were implanted with a stereotaxic frame (KOPF Instruments) at the following coordinates according to the bregma: AP, −0.5 mm; ML, 1 mm; and DV, −2.2 mm. Osmotic minipumps (Alzet) were filled with artificial cerebrospinal fluid (aCSF) with or without PTEN inhibitor VO-OHpic (2.5 μM) and equilibrated in 0.9% NaCl at 37° C. for 48 hours. They were attached to the i.c.v. cannula tubing and subcutaneously implanted at the back. After 21 days, behavioral testing was started as described herein. One month after implantation, mice were sacrificed and the brains were sliced stained with Nissl to verify the location of the cannula. Animal manipulation and data analysis was carried out blind with respect to genotype and treatment.
Novel-Object Location. This assay was chosen because it is not intrinsically stressful. This factor, in mice, crucially affects cognitive performance in other spatial learning paradigms (e.g., Morris water maze). The memory tests were composed of three phases—“habituation”, “sample” and “choice” trials. Mice were first habituated individually to an empty open-field box (35×35×15 high cm) for 30 minutes. A sample trial (object exposure) consisted of placing a mouse into the test box which contained two identical objects. […] A recognition index was calculated by dividing the total time spent exploring the displaced object by the total time spent exploring both objects during the test session. […]
as §3

Assay [3] concerns APP/PS1 mice. The assay can be described thus: Auditory-cued fear conditioning (hippocampal-independent) after i.c.v. infusion. Particulars: wild-type vs APP/PS1 mice, with or without VO-OHpic. The method, then:
as §1, §2, §3

As for `O=C(O)c1ncccc1O.O=C(O)c1ncccc1O.[O]=[V][O-]` [VO-OHpic], the “contextual fear conditioning performance (percentage freezing to the context)” value in the assay with APP/PS1 mice [1] (APP/PS1 mice, P=0.002) was “significantly improved their performance”; in the assay on APP/PS1 mice [1] (wild-type mice) it was “without altering”. In addition, the “performance in novel object location task (recognition index)” value with APP/PS1 mice [2] (APP/PS1 mice, P=0.02 vs vehicle-infused APP/PS1, recognition index similar to wild-type) is reported as “significant improvement”; in the assay on APP/PS1 mice [2] (wild-type mice), “did not affect the performance”. Also, the “auditory-cued fear conditioning (percentage freezing to the tone)” value with APP/PS1 mice [3] is “did not show significant difference”.
